Results reported in ChEMBL document CHEMBL1147701, “Novel 4-anilinoquinazolines with C-6 carbon-linked side chains: synthesis and structure-activity relationship of a series of potent, orally active, EGF receptor tyrosine kinase inhibitors” (Bioorg Med Chem Lett, 2006).
pIC50: −log10 of the molar value.

Tests used:
[1] = biological target: T1, Serine/threonine-protein kinase Sgk1 (Homo sapiens, UniProt O00141); assay: Inhibition of SGK
T1 sequence (O00141 whole entry): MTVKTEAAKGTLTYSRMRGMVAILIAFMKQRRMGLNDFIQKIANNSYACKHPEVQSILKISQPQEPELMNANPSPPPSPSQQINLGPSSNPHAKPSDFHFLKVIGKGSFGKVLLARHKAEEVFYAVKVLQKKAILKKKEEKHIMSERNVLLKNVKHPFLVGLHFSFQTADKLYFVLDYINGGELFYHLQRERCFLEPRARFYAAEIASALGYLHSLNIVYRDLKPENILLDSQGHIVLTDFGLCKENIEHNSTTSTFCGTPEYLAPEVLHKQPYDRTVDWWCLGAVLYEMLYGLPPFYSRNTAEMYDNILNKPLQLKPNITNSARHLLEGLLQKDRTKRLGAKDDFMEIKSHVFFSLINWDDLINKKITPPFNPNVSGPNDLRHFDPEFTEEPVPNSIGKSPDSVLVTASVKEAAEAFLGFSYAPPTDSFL

[2] = biological target: Mitogen-activated protein kinase 1 (Homo sapiens, UniProt P28482); assay: Inhibition of MAPK
Chain of Mitogen-activated protein kinase 1 (P28482 whole entry): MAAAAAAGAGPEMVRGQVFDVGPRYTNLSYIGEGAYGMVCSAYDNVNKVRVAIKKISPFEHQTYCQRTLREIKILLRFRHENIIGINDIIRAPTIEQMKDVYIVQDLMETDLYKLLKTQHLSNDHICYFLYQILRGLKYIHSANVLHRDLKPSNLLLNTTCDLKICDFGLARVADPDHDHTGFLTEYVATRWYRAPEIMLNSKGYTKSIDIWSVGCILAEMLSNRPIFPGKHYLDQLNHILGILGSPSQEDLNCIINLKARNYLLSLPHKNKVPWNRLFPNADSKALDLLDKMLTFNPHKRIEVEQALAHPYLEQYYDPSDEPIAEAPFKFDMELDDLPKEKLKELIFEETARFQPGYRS

[3] = biological target: c-Jun N-terminal kinase, JNK (Homo sapiens, UniProt P45983+P53779+P45984); assay: Inhibition of JNK; type: protein assay
[4] = biological target: cAMP-dependent protein kinase (PKA) (Homo sapiens, UniProt P22694+P17612+P22612); assay: Inhibition of PKA; type: protein assay
[5] = biological target: Proto-oncogene tyrosine-protein kinase Src (Homo sapiens, UniProt P12931); assay: Inhibition of Src
Chain of Proto-oncogene tyrosine-protein kinase Src (P12931 2-536 limits assumed): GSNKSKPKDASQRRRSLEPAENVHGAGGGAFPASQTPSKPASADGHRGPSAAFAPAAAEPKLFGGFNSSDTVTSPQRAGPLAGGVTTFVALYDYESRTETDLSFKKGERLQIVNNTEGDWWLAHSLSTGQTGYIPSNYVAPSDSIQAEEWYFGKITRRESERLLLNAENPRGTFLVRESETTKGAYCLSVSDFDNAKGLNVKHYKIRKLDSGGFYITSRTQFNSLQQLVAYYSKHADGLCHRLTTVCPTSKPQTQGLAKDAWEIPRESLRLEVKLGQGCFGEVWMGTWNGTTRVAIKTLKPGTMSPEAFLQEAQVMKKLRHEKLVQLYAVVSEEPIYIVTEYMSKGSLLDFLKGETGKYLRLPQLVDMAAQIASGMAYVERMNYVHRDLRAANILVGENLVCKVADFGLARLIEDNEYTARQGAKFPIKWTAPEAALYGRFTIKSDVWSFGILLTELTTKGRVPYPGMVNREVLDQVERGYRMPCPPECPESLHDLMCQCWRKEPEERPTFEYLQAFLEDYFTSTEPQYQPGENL

[6] = biological target: Glycogen synthase kinase-3 beta (Homo sapiens, UniProt P49841); assay: Inhibition of GSK3-beta
Chain of Glycogen synthase kinase-3 beta (P49841 whole entry): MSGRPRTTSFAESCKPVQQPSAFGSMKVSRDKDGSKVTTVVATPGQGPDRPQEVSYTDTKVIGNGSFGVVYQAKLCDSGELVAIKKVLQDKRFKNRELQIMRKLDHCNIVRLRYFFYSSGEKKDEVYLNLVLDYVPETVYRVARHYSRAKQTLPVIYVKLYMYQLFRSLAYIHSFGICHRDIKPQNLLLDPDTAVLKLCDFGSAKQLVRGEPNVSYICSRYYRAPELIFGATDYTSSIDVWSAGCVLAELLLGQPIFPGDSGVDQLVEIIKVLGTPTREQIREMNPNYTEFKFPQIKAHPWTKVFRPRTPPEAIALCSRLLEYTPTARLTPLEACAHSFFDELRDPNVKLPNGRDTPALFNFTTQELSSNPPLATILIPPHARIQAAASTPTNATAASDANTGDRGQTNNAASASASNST

[7] = biological target: AMP-activated protein kinase, AMPK; assay: Inhibition of AMPK; type: protein-complex assay
[8] = biological target: T2, Serine/threonine-protein kinase Chk1 (Homo sapiens, UniProt O14757); assay: Inhibition of CHK1
T2 sequence (O14757 whole entry): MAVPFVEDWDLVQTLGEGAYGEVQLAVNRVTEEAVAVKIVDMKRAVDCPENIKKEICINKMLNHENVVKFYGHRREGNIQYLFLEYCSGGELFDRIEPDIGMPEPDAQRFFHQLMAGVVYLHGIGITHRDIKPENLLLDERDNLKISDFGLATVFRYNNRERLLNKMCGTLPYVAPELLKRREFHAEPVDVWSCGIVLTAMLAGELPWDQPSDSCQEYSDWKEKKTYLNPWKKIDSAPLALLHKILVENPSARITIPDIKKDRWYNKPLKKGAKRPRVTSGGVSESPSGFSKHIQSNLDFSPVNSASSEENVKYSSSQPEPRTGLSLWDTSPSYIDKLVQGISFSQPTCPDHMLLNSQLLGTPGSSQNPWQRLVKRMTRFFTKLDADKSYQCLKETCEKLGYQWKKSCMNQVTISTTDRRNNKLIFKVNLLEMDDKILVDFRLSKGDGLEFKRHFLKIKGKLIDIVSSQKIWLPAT

[9] = biological target: Rho-associated protein kinase 2 (Homo sapiens, UniProt O75116); assay: Inhibition of ROCK2
Chain of Rho-associated protein kinase 2 (O75116 whole entry): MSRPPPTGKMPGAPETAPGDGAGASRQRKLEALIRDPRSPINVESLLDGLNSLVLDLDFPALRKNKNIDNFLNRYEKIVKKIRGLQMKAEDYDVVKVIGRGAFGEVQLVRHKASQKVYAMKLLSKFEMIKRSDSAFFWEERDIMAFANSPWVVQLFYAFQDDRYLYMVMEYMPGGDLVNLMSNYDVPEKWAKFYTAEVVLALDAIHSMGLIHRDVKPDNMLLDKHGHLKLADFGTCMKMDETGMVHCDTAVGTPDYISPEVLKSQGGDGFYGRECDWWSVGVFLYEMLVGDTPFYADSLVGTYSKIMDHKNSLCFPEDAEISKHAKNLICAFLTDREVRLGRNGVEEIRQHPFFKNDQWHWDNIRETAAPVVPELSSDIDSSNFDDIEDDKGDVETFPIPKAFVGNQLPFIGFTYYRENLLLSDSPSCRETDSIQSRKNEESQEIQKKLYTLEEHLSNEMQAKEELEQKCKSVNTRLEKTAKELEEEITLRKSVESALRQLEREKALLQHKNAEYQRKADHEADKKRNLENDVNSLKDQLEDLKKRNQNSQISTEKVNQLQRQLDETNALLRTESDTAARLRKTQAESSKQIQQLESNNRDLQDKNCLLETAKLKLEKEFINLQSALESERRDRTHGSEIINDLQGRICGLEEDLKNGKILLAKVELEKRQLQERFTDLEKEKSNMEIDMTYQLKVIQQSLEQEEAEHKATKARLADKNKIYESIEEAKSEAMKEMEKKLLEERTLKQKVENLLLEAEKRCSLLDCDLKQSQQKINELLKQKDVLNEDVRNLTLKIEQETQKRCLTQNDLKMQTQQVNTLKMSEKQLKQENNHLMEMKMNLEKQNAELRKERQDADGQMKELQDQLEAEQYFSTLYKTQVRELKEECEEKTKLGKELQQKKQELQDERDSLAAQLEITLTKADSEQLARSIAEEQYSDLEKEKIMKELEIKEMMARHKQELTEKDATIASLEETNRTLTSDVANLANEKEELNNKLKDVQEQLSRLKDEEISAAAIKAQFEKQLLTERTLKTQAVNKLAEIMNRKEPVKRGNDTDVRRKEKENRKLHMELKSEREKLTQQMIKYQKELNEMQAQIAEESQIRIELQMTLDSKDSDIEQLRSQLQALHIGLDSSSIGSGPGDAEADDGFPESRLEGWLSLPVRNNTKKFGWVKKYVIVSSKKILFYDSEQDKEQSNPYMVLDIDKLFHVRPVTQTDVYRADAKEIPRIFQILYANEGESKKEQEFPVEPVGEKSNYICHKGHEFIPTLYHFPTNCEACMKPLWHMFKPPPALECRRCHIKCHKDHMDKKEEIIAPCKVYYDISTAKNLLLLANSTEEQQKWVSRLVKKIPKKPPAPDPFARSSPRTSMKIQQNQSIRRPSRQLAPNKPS

[10] = biological target: Vascular endothelial growth factor receptor 2 (Homo sapiens, UniProt P35968)
Chain of Vascular endothelial growth factor receptor 2 (P35968 whole entry): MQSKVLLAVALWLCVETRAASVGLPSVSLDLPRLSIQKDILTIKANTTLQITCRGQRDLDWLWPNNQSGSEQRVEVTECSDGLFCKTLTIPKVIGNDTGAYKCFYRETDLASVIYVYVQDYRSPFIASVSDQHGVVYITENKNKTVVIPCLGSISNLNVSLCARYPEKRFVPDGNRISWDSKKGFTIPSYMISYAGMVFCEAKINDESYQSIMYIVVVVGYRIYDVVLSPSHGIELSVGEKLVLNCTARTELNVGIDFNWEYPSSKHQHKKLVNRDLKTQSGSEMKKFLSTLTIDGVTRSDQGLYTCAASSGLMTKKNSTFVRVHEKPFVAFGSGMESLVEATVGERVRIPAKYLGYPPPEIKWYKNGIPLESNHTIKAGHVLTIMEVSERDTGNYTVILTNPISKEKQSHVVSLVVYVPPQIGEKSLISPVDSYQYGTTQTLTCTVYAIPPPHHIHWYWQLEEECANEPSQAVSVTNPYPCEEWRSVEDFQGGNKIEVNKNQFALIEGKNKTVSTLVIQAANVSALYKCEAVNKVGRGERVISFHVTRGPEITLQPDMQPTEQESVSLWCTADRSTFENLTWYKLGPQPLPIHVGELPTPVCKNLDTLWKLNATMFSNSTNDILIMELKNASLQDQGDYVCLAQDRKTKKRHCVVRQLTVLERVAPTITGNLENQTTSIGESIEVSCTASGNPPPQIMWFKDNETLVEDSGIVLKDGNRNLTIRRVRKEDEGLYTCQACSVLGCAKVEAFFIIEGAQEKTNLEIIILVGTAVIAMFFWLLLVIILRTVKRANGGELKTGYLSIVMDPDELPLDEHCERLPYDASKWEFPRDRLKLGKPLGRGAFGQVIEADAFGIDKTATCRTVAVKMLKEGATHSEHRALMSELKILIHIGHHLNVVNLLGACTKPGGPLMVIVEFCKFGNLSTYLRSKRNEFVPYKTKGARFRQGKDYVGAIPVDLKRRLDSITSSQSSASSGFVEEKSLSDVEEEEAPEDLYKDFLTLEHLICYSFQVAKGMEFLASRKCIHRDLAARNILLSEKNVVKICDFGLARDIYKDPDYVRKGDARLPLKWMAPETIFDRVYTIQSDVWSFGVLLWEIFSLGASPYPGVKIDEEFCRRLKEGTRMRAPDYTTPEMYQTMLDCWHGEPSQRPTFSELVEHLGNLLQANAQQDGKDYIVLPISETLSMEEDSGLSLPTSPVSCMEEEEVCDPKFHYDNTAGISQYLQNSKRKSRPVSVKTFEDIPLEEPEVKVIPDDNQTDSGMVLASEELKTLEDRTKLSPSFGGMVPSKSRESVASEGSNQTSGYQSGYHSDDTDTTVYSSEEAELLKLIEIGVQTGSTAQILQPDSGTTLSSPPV

MAP kinase p38 = MAP kinase p38 (Homo sapiens, UniProt O15264+Q15759+Q16539+P53778)
[11] = Inhibition of CDK
[12] = biological target: Tyrosine-protein kinase Lck (Homo sapiens, UniProt P06239)
Chain of Tyrosine-protein kinase Lck (P06239 whole entry): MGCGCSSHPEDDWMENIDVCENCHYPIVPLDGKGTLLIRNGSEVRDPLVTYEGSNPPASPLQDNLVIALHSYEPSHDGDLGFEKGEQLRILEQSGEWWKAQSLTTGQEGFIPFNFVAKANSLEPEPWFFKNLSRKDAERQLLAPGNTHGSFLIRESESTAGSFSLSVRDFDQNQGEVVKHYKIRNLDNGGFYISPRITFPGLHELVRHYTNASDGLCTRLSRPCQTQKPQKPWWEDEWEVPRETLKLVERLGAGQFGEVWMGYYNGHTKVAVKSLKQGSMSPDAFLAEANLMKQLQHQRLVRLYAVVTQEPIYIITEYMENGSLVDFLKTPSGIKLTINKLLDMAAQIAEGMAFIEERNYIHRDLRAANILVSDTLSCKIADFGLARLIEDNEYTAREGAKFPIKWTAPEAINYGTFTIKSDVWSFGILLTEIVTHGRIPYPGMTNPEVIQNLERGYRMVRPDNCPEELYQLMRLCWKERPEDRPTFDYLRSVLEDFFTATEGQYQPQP

Row | Compound | pIC50 [1] | pIC50 [2] | IC50 [3] [µM] | IC50 [4] [µM] | pIC50 [5] | pIC50 [6] | pIC50 [7] | pIC50 [8] | pIC50 [9] | pIC50 [10] | IC50 (MAP kinase p38) [µM] | pIC50 [11] | pIC50 [12]
1 | COc1cc2ncnc(Nc3cccc(Cl)c3F)c2cc1CN1CCN(C)CC1C(N)=O (configuration not stated) | < 5.00 | < 5.00 | > 10 | > 10 | < 5.00 | < 5.00 | < 5.00 | < 5.00 | < 5.00 | < 5.00 | > 10 |  | 
2 | COc1cc2ncnc(Nc3cccc(Cl)c3F)c2cc1CN1CCCC[C@@H]1C(N)=O | < 5.00 | < 5.00 | > 10 | > 10 | < 5.00 | < 5.00 | < 5.00 | < 5.00 | < 5.00 | < 5.00 | > 10 | < 5.00 | < 5.00
3 | COc1cc2ncnc(Nc3ccc(F)c(Cl)c3)c2cc1CN1CCC[C@@H]1C(N)=O | < 5.00 | < 5.00 | > 10 | > 10 | < 5.00 | < 5.00 | < 5.00 | < 5.00 | < 5.00 | < 5.00 | > 10 | < 5.00 | 
4 | COc1cc2ncnc(Nc3cccc(Cl)c3F)c2cc1CN1CC(C(N)=O)C1 | < 5.00 | < 5.00 | > 10 | > 10 | < 5.00 | < 5.00 | < 5.00 | < 5.00 | < 5.00 | < 5.00 |  |  | 
5 | COc1cc2ncnc(Nc3cccc(Cl)c3F)c2cc1CN1C[C@H](OC)C[C@@H]1C(N)=O | < 5.00 | < 5.00 | > 10 |  | < 5.00 | < 5.00 | < 5.00 | < 5.00 | < 5.00 | < 5.00 |  |  | 
6 | COc1cc2ncnc(Nc3cccc(Cl)c3F)c2cc1CN1CCC1C(N)=O (configuration not stated) | < 5.00 | < 5.00 | > 10 | > 10 | < 5.00 | < 5.00 | < 5.00 | < 5.00 | < 5.00 | < 5.00 | > 10 |  | 
7 | COCC[C@@H](C(N)=O)N(C)Cc1cc2c(Nc3cccc(Cl)c3F)ncnc2cc1OC | < 5.00 | < 5.00 | > 10 | > 10 | < 5.00 | < 5.00 | < 5.00 | < 5.00 | < 5.00 | < 5.00 | > 10 | < 5.00 | < 5.00
8 | COc1cc2ncnc(Nc3cccc(Cl)c3F)c2cc1CN1CCOCC1C(N)=O (configuration not stated) | < 5.00 | < 5.00 | > 10 | > 10 | < 5.00 | < 5.00 | < 5.00 | < 5.00 | < 5.00 | < 5.00 |  |  | < 5.00
9 | COc1cc2ncnc(Nc3cccc(Cl)c3F)c2cc1CN(C)[C@@H](CO)C(N)=O | < 5.00 | < 5.00 | > 10 | > 10 | < 5.00 | < 5.00 | < 5.00 | < 5.00 | < 5.00 | < 5.00 | > 10 |  | 
10 | COc1cc2ncnc(Nc3cccc(Cl)c3F)c2cc1CN1CCC[C@@H]1C(N)=O | < 5.00 | < 5.00 | > 10 | > 10 | < 5.00 | < 5.00 | < 5.00 | < 5.00 | < 5.00 | < 5.00 |  | < 5.00 | < 5.00
11 | CNC(=O)[C@@H](C)N(C)Cc1cc2c(Nc3cccc(Cl)c3F)ncnc2cc1OC | < 5.00 | < 5.00 | > 10 | > 10 | < 5.00 | < 5.00 | < 5.00 | < 5.00 | < 5.00 | < 5.00 | > 10 | < 5.00 | < 5.00
12 | COc1cc2ncnc(Nc3cccc(Cl)c3F)c2cc1CN(CCN(C)C)[C@@H](C)C(N)=O | < 5.00 | < 5.00 | > 10 | > 10 | < 5.00 | < 5.00 | < 5.00 | < 5.00 | < 5.00 | < 5.00 |  |  | < 5.00
13 | COc1cc2ncnc(Nc3cccc(Cl)c3F)c2cc1CN(C)C1CCNC1=O (configuration not stated) | < 5.00 | < 5.00 | > 10 | > 10 | < 5.00 | < 5.00 | < 5.00 | < 5.00 | < 5.00 | < 5.00 | > 10 |  | 
14 | COC[C@@H](C(N)=O)N(C)Cc1cc2c(Nc3cccc(Cl)c3F)ncnc2cc1OC | < 5.00 | < 5.00 | > 10 | > 10 | < 5.00 | < 5.00 | < 5.00 | < 5.00 | < 5.00 | < 5.00 | > 10 |  | 
15 | COc1cc2ncnc(Nc3cccc(Cl)c3F)c2cc1CN(C)[C@H](C)C(=O)N(C)C | < 5.00 | < 5.00 | > 10 | > 10 | < 5.00 | < 5.00 | < 5.00 | < 5.00 | < 5.00 | < 5.00 |  |  | 
16 | COc1cc2ncnc(Nc3cccc(Cl)c3F)c2cc1CN1CC[C@H](C(N)=O)C1 | < 5.00 | < 5.00 | > 10 |  | < 5.00 | < 5.00 | < 5.00 | < 5.00 | < 5.00 | < 5.00 |  |  | < 5.00
17 | COc1cc2ncnc(Nc3cccc(Cl)c3F)c2cc1CN(C)[C@@H](CN(C)C)C(N)=O | < 5.00 | < 5.00 | > 10 | > 10 | < 5.00 | < 5.00 | < 5.00 | < 5.00 | < 5.00 | < 5.00 | > 10 | < 5.00 | < 5.00
18 | COc1cc2ncnc(Nc3ccc(F)c(Cl)c3)c2cc1CN1CCC[C@H]1C(N)=O | < 5.00 | < 5.00 | > 10 | > 10 | < 5.00 | < 5.00 | < 5.00 | < 5.00 | < 5.00 | < 5.00 | > 10 | < 5.00 | 
19 | COc1cc2ncnc(Nc3cccc(Cl)c3F)c2cc1CN1CCC[C@@H]1C(=O)N(C)C | < 5.00 | < 5.00 | > 10 | > 10 | < 5.00 | < 5.00 | < 5.00 | < 5.00 | < 5.00 | < 5.00 |  |  | 
20 | COCCN(Cc1cc2c(Nc3cccc(Cl)c3F)ncnc2cc1OC)[C@@H](C)C(N)=O | < 5.00 | < 5.00 | > 10 | > 10 | < 5.00 | < 5.00 | < 5.00 | < 5.00 | < 5.00 | < 5.00 |  |  | < 5.00
21 | CNC(=O)[C@H]1CCCN1Cc1cc2c(Nc3cccc(Cl)c3F)ncnc2cc1OC | < 5.00 | < 5.00 | > 10 | > 10 | < 5.00 | < 5.00 | < 5.00 | < 5.00 | < 5.00 | < 5.00 | > 10 |  | 
22 | COc1cc2ncnc(Nc3cccc(Cl)c3F)c2cc1CN1CCCC1 | < 5.00 | < 5.00 | > 10 | > 10 | < 5.00 | < 5.00 | < 5.00 | < 5.00 | < 5.00 | < 5.00 |  |  | < 5.00
